Laboratory results as given in US6083692A, “Method of detecting the presence and measuring the quantity of biological polymers” (American Home Products Corporation, priority 1996, dated 2000).

Tested on: ATP-dependent exonuclease
Assay: Coupled spectrophotometric assay: ADP formation coupled to NADH oxidation (PK/LDH), read at 340 nm
Assay type: biochemical
Conditions: for Product inhibition: observed only upon >50% conversion of the substrates ATP and DNA; for Relative rate of ATP hydrolysis: alone
Protocol: Standard curves were routinely generated by using 0, 2, 6, 10, 14 and 18 μL of 1 ng/μL substrate DNA. Eighty μl of the reaction mix was incubated with up to 20 μl of DNA and dH2 O (total volume of 100 μl) at 25° C. The reactions were quenched with 15 μl of 200 mM EDTA, pH 8.0/NaOH, following a 30 or 40 min incubation. The reactions were read at 340 nm.
The 10× assay buffer contained tris-acetate (pH 7.8/acetate at 25° C.); 330 mM, potassium acetate; 660 mM, magnesium acetate; 100 mM, dithiothreitol; 5 mM, Triton X-100, 0.1%. The reaction mix was prepared as follows, 10× buffer; 0.250 ml, NADH; 0.250 ml (0.64 μmoles), PEP; 25.0 μl (2.4 μmoles), ATP; 75.0 μl (2.5 μmoles), H2 O; 1.305 ml, PK/LDH enzyme mix; 75.0 μl, ATP dependent DNAase; 20.0 μl (200 units).
An enzyme kinetics program ENZFITTER (Elsevier Biosoft) was used to generate a plot (A340 versus ng DNA) of the standard. The slope was calculated following a regression analysis. A similar plot of the sample (A340 versus μL DNA) was also prepared. The slope determined from the regression analysis was used to calculate the concentration of linear DNA in the sample.
A reliable method for quantification requires that the concentration of products formed in the reaction is linear with time, concentrations of enzyme and of substrate. In the present assay, ATP hydrolysis was linear with time. The experiments that generated the data shown in FIG. 2 are a coupled spectrophotometric assay in which the linear DNA content was varied from 2 to 20 ng. Twenty μL aliquots were removed at various times (10, 20, 30 & 60 min), and quenched by mixing with 4 μl of 200 mM EDTA as described in Materials and Methods. The samples were further diluted to 100 μl with water, to facilitate determination of optical density. ATP hydrolysis was linear with time and at least up to 40% substrate converted to products (<0.4 mM ADP and Pi). ADP formation was also linear with several enzyme concentrations. The experiments that generated the data shown in FIG. 3 are a coupled assay system in which the amount of enzyme added to the reaction was varied. The enzyme was diluted using 1× reaction buffer and left on ice prior to its addition to the reaction mixture. The reaction was quenched at 15 min, with EDTA as described in Materials and Methods. ADP formation was linear with several enzyme concentrations at least until 0.36 mM ADP and Pi was formed in the reaction. The reaction rates were slower when ~60% of the substrates (100 ng DNA and 1 mM ATP) were converted to products. […] The Vmax was 30 nmoles/min/mg enzyme. In the experiments that generated the data in FIG. 4, the reaction was carried out in a coupled assay as described in the Methods. The reactions were initiated by the addition of enzyme. Following initiation of the 500 μl reaction; 100 μl samples were withdrawn at 1, 2, 5 and 10 min and quenched with 10 μl of 200 mM EDTA. Initial velocities were derived from the reaction rate, obtained by linear regression analysis of absorbances at 340 nm recorded at various times during the reaction. […] The data reported in FIG. 5A is replot of FIG. 2 as a function of linear DNA content in the reaction mixture. In the experiments which generated these date, the 20 μl aliquots were quenched with EDTA as described above, at various times of incubation. […] The results are consistent with the potential use of this enzyme to quantify linear DNA content.

[1] = 50 ng linear DNA as substrate, +10 mM EDTA or +1 mM citrate

Nc1ncnc2c1ncn2[C@@H]1O[C@H](COP(=O)(O)OP(=O)(O)O)[C@@H](O)[C@H]1O [ADP, adenosine diphosphate]
Product inhibition: Product inhibition

O=C(O)CN(CCN(CC(=O)O)CC(=O)O)CC(=O)O [EDTA]
Relative rate of ATP hydrolysis [1]: 0.008 | Effect on the enzymatic reaction (at molar equivalent to the divalent cation used in the assay): quenched the enzymatic reaction

O=P(O)(O)O [Pi, inorganic phosphate]
Product inhibition: Product inhibition

O=C(O)CC(O)(CC(=O)O)C(=O)O [citrate]
Relative rate of ATP hydrolysis [1]: 0.686 | Enhancement of enzymatic activity (citrate at 50 μM): ~50% | Inhibition of ATP hydrolytic activity (citrate at 1 mM in the presence of 10 mM Mg++): 30%

CCO [ethanol]
Relative rate of ATP hydrolysis (5 ng linear DNA as substrate, +200 ng t-RNA, +500 ng circular DNA or +5% ethanol): 0.86 | Relative rate of ATP hydrolysis (10 ng linear DNA as substrate, +200 ng t-RNA, +500 ng circular DNA or +5% ethanol): 1.78 | Relative rate of ATP hydrolysis (15 ng linear DNA as substrate, +200 ng t-RNA, +500 ng circular DNA or +5% ethanol): 2.64 | Effect on enzymatic activity (concentrations beyond 4% ethanol): severely inhibited
